Results as given in ChEMBL document CHEMBL3507680, “University of Dundee, Gates Library screen for HepG2 cell viability”.

Experiment: Human HepG2 cell viability assay in 384 well format
Format: toxicity, cell-based
Set-up: dose 125 nL, time 70.5 hour; cytotoxicity at 70.5 h: concentration not given beside the values
Conditions: HepG2 cells, read-out: Inhibition

| SMILES | cytotoxicity at 70.5 h [%] |
| --- | --- |
| CC(C)Nc1cccc(C(=O)NCC(O)c2cccc(F)c2)c1 (stereo not given) | -6.04 |
| Cc1nc(C)c(C(=O)NCCOc2ccc(C(F)(F)F)cn2)o1 | -3.32 |
| CCc1nnc2n1CCN(Cc1nc3c(F)cccc3[nH]1)C2 | 11.8 |
| CNc1cc2c(nn1)CCN(C(=O)c1cc(C)n(C3CC3)c1C)C2 | 15.8 |
| O=C(C[C@H]1[C@H]2CN(C(=O)CO)C[C@@H]12)Nc1cccnc1 | 0.591 |
| CC(Nc1cccc(F)c1C#N)c1cccc(S(N)(=O)=O)c1 (stereo not given) | -8.67 |
| Cn1nccc1C(=O)N1CCC(c2nnsc2S(C)(=O)=O)CC1 | -5.74 |
| CN(C)c1cncc(C2CCN(C(=O)CO)CC2)n1 | -22.6 |
| CCc1nc(CN2CCCN(Cc3cnn(C)c3)CC2)no1 | 0.0385 |
| Cc1cc(C(N)=O)nc(C2(C)CCCN2Cc2cnn(C)c2C)n1 (stereo not given) | -0.0176 |
| COc1ccc(CN(C(=O)C2CCCOC2)c2ccncc2)cc1 (stereo not given) | -3.58 |
| Cc1ccc(O)c(CNCC2CCCN2c2cccnn2)n1 (stereo not given) | -11.5 |
| Cc1cnn(CC2CCCN2Cc2coc(-c3ccccc3)n2)c1 (stereo not given) | 13.5 |
| Cc1cccc(C(=O)N2C[C@H]3CC[C@@H]2CN(S(=O)(=O)N(C)C)C3)n1 | -10.2 |
| CC(C)n1nc2c(cc1=O)CN(CCOc1ccccc1C#N)CC2 | 6.74 |
| CN1CCC(Cc2noc(CCc3nc4ccccc4nc3O)n2)CC1 | -7.26 |
| CCn1nc2c(cc1=O)CN(Cc1nc(-c3cccs3)no1)CC2 | -12.8 |
| CN(Cc1ccccn1)C(=O)c1nn(C)c2c1CCN(CC1CC1)C2 | -1.96 |
| O=C(O)C1CN(c2cncc(Cc3ccccc3)n2)C1 | -3.73 |
| CCc1nnc(CSc2ccccn2)o1 | -9.38 |
| O=C(NCc1cccs1)[C@@H]1CC[C@@H]2[C@@H](CCN2C2CCOCC2)O1 | -14.8 |
| c1cc2c(cc1CN1CCCC3(CCOC3)C1)OCO2 (stereo not given) | 41.1 |
| Cc1noc(-c2ccnc(Oc3ccc(CN4CCCC4)cc3C)c2)n1 | -4.76 |

| SMILES | cytotoxicity at 70.5 h [%] |
| --- | --- |
| CN1CCN(c2ncc3c(=O)n(Cc4ccco4)ccc3n2)CC1 | -9.22 |
| C1CCC(N2CCCN(c3nc(C4CC4)no3)CC2)C1 | 0.93 |
| Cc1noc(C)c1C(=O)N1C[C@H]2CCC[C@@]2(COc2ccccn2)C1 | -11.3 |
| CCn1cnnc1CNC(=O)N1CCN(c2ccc(OC)cc2)CC1 | -11.7 |
| c1ccc(CNC2CCc3ncnn3C2)nc1 (stereo not given) | 6.6 |
| CN(Cc1cnn(C)c1)C(=O)CN1CCCC(Cn2cncn2)C1 (stereo not given) | 48 |
| Cc1cc(N2CCCC(O)(CN(C)C)CC2)nc(-c2ccccc2)n1 (stereo not given) | -4.65 |
| Cc1nccn1-c1cc(CNC(=O)N2CCSCC2)ccn1 | -3.48 |
| Cn1cc(CN2CCCN(C(=O)c3ccc4ccccc4n3)CC2)cn1 | -13 |
| O=C1Nc2ccccc2CNC12CCN(CC1CCCC1)CC2 | -7.54 |
| CNc1cccc(C2CCCN(C(=O)c3coc(C)n3)C2)n1 (stereo not given) | -0.702 |
| CCO[C@@H]1CCN(C(=O)N(C)C)[C@@H]1Cc1cnn(C)c1 | -10.7 |
| CCCNC(=O)NCc1ccccc1NS(=O)(=O)c1ccccc1 | -0.797 |
| NCC1CN(C(=O)c2cccc(-n3cccn3)c2)CCO1 (stereo not given) | 5.52 |
| O=C(c1cncs1)N1CCOC(c2cc(CCO)[nH]n2)C1 (stereo not given) | -7.42 |
| Cc1nc(CN2CCC23CCN(Cc2ccco2)CC3)cs1 | -5.68 |
| NC(=O)C1CN(c2ccc3c(Cl)ccnc3c2F)CCO1 (stereo not given) | -7.96 |
| O=c1[nH]c(CCN2CCN(CC(F)(F)F)CC2)nc2ccccc12 | -4.17 |
| O=C(Nc1ccccc1OCCc1ccccn1)N1CCOCC1 | -13.5 |
| Cc1cnc(C(=O)N2C[C@H]3CC[C@@H]2CN(S(=O)(=O)N(C)C)C3)cn1 | -7.71 |
| Cc1ccc(CN(CCN(C)C)Cc2c(C)nc3sccn23)o1 | 6.95 |
| CCc1ccsc1C(=O)N1CCCN(Cc2cnn(CC)c2)CC1 | 7.56 |
| CN(C(=O)Cc1cccs1)C1CCN(c2ccccn2)CC1 | -5.49 |

| SMILES | cytotoxicity at 70.5 h [%] |
| --- | --- |
| COC(=O)c1sc(NCc2ccc(N3CCC(O)CC3)c(F)c2)nc1Cl | -4.16 |
| CCOC(=O)CCCN1CCCC(C(=O)Nc2ccc(Cl)cn2)C1 (stereo not given) | 15.1 |
| CC(C(=O)NC1(C#N)CCCCC1)N1CCc2c(ncn2C2CC2)C1 (stereo not given) | -8.12 |
| NCC(=O)N1CCCC1c1nccnc1Nc1ncccn1 (stereo not given) | -1.95 |
| Cc1nccc(CNC(=O)NCC(C)Oc2ccccc2F)n1 (stereo not given) | 10.9 |
| CN(C)CCOCc1ncn2c1CN(c1ncc(F)cn1)CCC2 | -3.65 |
| O=C1NCCN2CCN(C(=O)Nc3ccc(-c4ccccc4)cc3)CC12 (stereo not given) | 10.4 |
| NS(=O)(=O)CC1CCCN1CCOc1ccccc1F (stereo not given) | -12.4 |
| COc1cccc(CC2(C(=O)O)CCN(c3nccs3)CC2)c1 | -7.32 |
| Cc1ccc2cc(C(=O)NCCN3CCS(=O)(=O)CC3)c(C)nc2c1 | -15.9 |
| COCC(=O)NCC1Cn2nnc(-c3ccncc3)c2CO1 (stereo not given) | -3.5 |
| CN(C)c1ccc(CNCc2ccc(N3CCOCC3)cc2)cn1 | -9.01 |
| O=C(NC1CCCN(c2ncccn2)C1)c1cn2ccccc2n1 (stereo not given) | -6.6 |
| O=S(=O)(c1ccccc1)N1CCC[C@]2(C[C@H](OCC3CC3)CO2)C1 | -9.34 |
| Cn1ccnc1CN1CCOC(Cn2cccn2)C1 (stereo not given) | -1.69 |
| CSCCC1c2nc[nH]c2CCN1Cc1ccnc2ccccc12 (stereo not given) | -12.3 |
| COc1ccc(N2Cc3nc(N)ncc3C2=O)cc1 | 9.83 |
| Cc1nc(C)n(CC2CCCCN2CCOc2ccc(C#N)cc2)n1 (stereo not given) | -9.43 |
| Cc1cccc(-n2c(C)cc(C(=O)N3CCn4c(C)nnc4C3)c2C)c1 | -1.57 |
| COc1ccc2c3c1CN(C(C)=O)CC3=CC(C)(C)CO2 | 0.846 |
| c1ccc(OCc2n[nH]c3c2CN(Cc2cccs2)C3)nc1 | -0.121 |
| CCn1cnnc1Cn1cccc(C(F)(F)F)c1=O | 4.98 |
| Cc1nc(C)n(CC2CCCN(Cc3cccc4c3OCCO4)C2)n1 (stereo not given) | 12 |

| SMILES | cytotoxicity at 70.5 h [%] |
| --- | --- |
| CNC(=O)C1CCN(c2ncc3c(n2)CCN3c2ccccc2)C1 (stereo not given) | -4.33 |
| Cc1cnc(N2CCC3(CCCN3C(=O)c3ccco3)CC2)nc1 | -2.74 |
| CCSc1cc(C(=O)NCc2ccc(C(=O)NC)cc2)ccn1 | -81.1 |
| CCc1noc(C)c1-c1nc(Cc2cccs2)nn1C1CCN(C)CC1 | -1.49 |
| Fc1cccc(C2(CNC3CCSC3)CCOCC2)c1 (stereo not given) | 13.3 |
| OC1(c2cn(CC3CCN(C4CCSC4)CC3)nn2)CCCC1 (stereo not given) | 1.14 |
| CN(C)c1cccc(C2CCCN2S(=O)(=O)c2cn(C)cn2)n1 (stereo not given) | -8.98 |
| CCCS(=O)(=O)N1CCC(NCc2c(C)nn(C)c2OC)CC1 | -7.02 |
| CCN(CC)C(=O)N1CCN(C(=O)C2CCCc3[nH]ncc32)CC1 (stereo not given) | -3.25 |
| Cc1noc(C)c1CN1CCOC2(CCCN(c3ncccn3)C2)C1 (stereo not given) | -5.7 |
| Cc1nc(CN2CCC3(CCCO3)CC2)c2ccccn12 | 14.9 |
| O=C(Cn1nc2c(cc1=O)CCCC2)N[C@@H](Cc1ccccc1)C(=O)O | 6.84 |
| COCCOCC(=O)Nc1ccc(F)cc1C | 11.3 |
| CS(=O)(=O)N1CCC2(CC1)CC(CC(=O)NC1CC1)c1ccccc12 (stereo not given) | -20.3 |
| Cc1nn(C)c(N(C)C)c1CNCC(O)COc1cccc(F)c1 (stereo not given) | -11.4 |
| CNC(=O)c1cnc(/C=C/c2ccc(OC)c(O)c2)s1 | -6.12 |
| CCn1cnnc1CNC(=O)N1CCN(Cc2ccsc2)CC1 | 2.69 |
| CCCN1CCc2nc(SCc3ccc(F)cc3)[nH]c(=O)c2C1 | -3.74 |
| CC(=O)N(C)c1nc(CN2CCCC2Cn2nc(C)cc2C)cs1 (stereo not given) | -3.11 |
| CCOC(=O)c1cc(C(C)(O)CCC=C(C)C)on1 (stereo not given) | -9.61 |
| COc1cc(N2CCC3(CC(=O)N(Cc4csc(C)n4)C3)C2)ncn1 (stereo not given) | -6.14 |
| Cc1cc(Br)cnc1N(C)CC1CCOC1 (stereo not given) | -3.38 |
| CNC(=O)c1[nH]nc2c1CN(c1cc(C3CCCNC3)nc(C)n1)CC2 (stereo not given) | -10.6 |

| SMILES | cytotoxicity at 70.5 h [%] |
| --- | --- |
| COc1nn(C)c2c1CCCN(C(=O)c1ccc[nH]1)C2 | -99.5 |
| COCCN(Cc1sccc1C)C(=O)COc1cccnc1 | -4.34 |
| COc1ncccc1NC(=O)NC(C)c1nncn1C (stereo not given) | -5.01 |
| CC(=O)N[C@@H]1CN(Cc2ccccc2-n2nc(C)cc2C)C[C@H]1C(C)C | -7.15 |
| Cn1cc(N2CC3(COCCN(Cc4ccccn4)C3)OCC2=O)cn1 (stereo not given) | -11.1 |
| O=C(NCCn1nc(-n2cncn2)ccc1=O)c1ccsc1 | -4.55 |
| CCc1nnc2n1CCN(C(=O)c1cnc3ccccc3n1)C2 | -4.54 |
| CC(NC(=O)N1CCC2(C1)OCCO2)c1cccc(Cl)c1 (stereo not given) | -4.94 |
| COc1ccc(N2CCCN(CC(=O)N3CCNC(=O)C3)CC2)cc1 | -8.51 |
| Cc1nc[nH]c1CN1C[C@@H]2OCCN(c3ncccn3)[C@@H]2C1 | -10.6 |
| O=S(=O)(CC1CCCCO1)Nc1cnn(CC(F)F)c1 (stereo not given) | -7.78 |
| COCCN1CCCN(C(=O)c2oc(C)nc2C)CC1 | -7.73 |
| Cc1nc(C)n(CC2CCCCN2CC(=O)Nc2nncs2)n1 (stereo not given) | -1.06 |
| COc1ccc(OC2CCN(C(=O)CCc3n[nH]c(N)n3)CC2)cc1 | 21.5 |
| Cc1ccccc1Oc1ncccc1CNC1CCC1 | 1.33 |
| Cc1csc(CNC(=O)NCC2(c3ccc4c(c3)OCO4)CC2)n1 | -2.06 |
| Cc1nc(C)c(C(=O)Nc2cc(N3CCC(C)CC3)ncn2)s1 | 0.183 |
| CCC(CC)NC(=O)Cn1cc(-c2ccccc2)cn1 | -2.71 |
| COCCNc1nnc(-c2cnc(C)cn2)s1 | -3.71 |
| Cc1cn2c(n1)CCC(NC(=O)CCC(F)(F)F)C2 (stereo not given) | -3.72 |
| Cc1ncc2c(n1)CN(Cc1nnc(Cc3ccccc3)o1)CC2 | -3.37 |
| NC(=O)CC1CCN(C(=O)c2cccn2Cc2cccs2)CC1 | 3.87 |
| COc1cc(CNCC(C)O)cc(Cl)c1OCc1ccc(C)cc1 (stereo not given) | 39 |
